Laboratory results reported in patent US12162836B2, “N-acyl-{4-[(4-aryl-phenyl)sulfonylmethyl]piperidine} compounds and their therapeutic use” (Modern Biosciences Limited, priority 2019, dated 2024).
Converted amounts (≈) assume the structure as drawn.

Assays:
[1] = test system: collagen-induced arthritis in DBA/1j mice; test: Mouse Collagen-Induced Arthritis; format: in vivo; details: 10 mg/kg/day, once daily for 14 days, oral gavage; arthritic index vs control
Description: Seven- to eight-week-old male DBA/1j mice were used for all procedures. Animals were housed in groups of 10, and were maintained at 21° C.±2° C. on a 12-hour light/dark cycle with food and water ad libitum. Complete Freund's adjuvant (CFA) was prepared by emulsifying bovine type II collagen at 4 mg/mL with a 4 mg/mL suspension of Mycobacterium tuberculosis H37Ra in Incomplete Freund's Adjuvant (IFA) (0.85 mL paraffin oil and 0.15 mL mannide monooleate) in a 1:1 (v/v) ratio. All mice were immunised subcutaneously with 200 μg of bovine type II collagen in CFA. 21 days later, all mice were immunised subcutaneously with 100 μg of bovine type II collagen in IFA. The mice started to develop signs and symptoms of arthritis following the ‘booster’ immunisation.
For macroscopic assessment of arthritis, the following signs were monitored in each paw of each mouse three times per week and summed to generate the Arthritic Index (A1) (the maximum A1 for one animal is 16): • 0=no visible effects of arthritis. • 1=oedema and/or erythema of 1 digit. • 2=oedema and/or erythema of 2 digits. • 3=oedema and/or erythema of more than 2 digits. • 4=severe arthritis of entire paw and digits.
Animals were sorted into treatment groups with a mean arthritic index of 2.5 and then dosed once daily for 14 days with compound: by oral gavage for test compounds, or by subcutaneous injection at a dose of 10 mg/kg for the positive control, etanercept. After completion of the experiment, the mice were sacrificed.
The data were analysed by generating an average of the arthritic index across each treatment group. The mean arthritic index was then compared to the arthritic index of control (untreated) animals using the following formula to generate a percentage inhibition of disease.

[2] = Aqueous solubility in FaSSIF; format: physicochemical; details: for solubility at 16 h: kinetic from dmso stock, pH 6.5, 16 hours, room temperature
Description: Aqueous solubility was measured by equilibration of compounds with fasted state simulated intestinal fluid (FaSSIF) and quantified spectrophotometrically.
Preparation of blank FaSSIF: 0.21 g of sodium hydroxide (NaOH) pellets, 1.97 g of dihydrogen sodium phosphate (NaH2PO4.2H2O) and 3.09 g of sodium chloride (NaCl) were dissolved in 400 mL of deionised water. The pH was adjusted to 6.5 using 1 M hydrochloric acid and further deionised water added to a final volume of 500 mL.
Preparation of FaSSIF: 0.056 g of SIF Powder (containing sodium taurocholate and lecithin) (Pharses A G) was dissolved in 25 mL of blank FaSSIF and stirred until the powder was completely dissolved. The solution was allowed to stand for 2 hours during which it became opalescent; it was used within 24 hours. The final solution composition was characterised as follows: • Sodium taurocholate: 3 mM • Lecithin: 0.75 mM • Osmolarity: 270±10 mOsmol • pH: 6.5
The optical density was measured at the end of the incubation period for test compounds and a reference used to determine solubility. In brief, two samples were prepared for each determination: a reference sample consisting of a stock solution of test compound in DMSO diluted in system solution (a phosphate free, low absorption buffer) and propanol; and a test sample (prepared in triplicate) consisting of 0.5 mL FaSSIF spiked with test compound at 0.2 mM. Each sample was incubated at room temperature for 16 hours with constant shaking at 250 rpm. At the end of the incubation period, 0.3 mL of each sample was filtered through a pION filter plate (PION, Woburn MA), diluted 1:1 with propanol and scanned using UV spectrophotometry at Amax ([…]) using a Spectra Max Plus—Version 2.1000 (Molecular Devices, Sunnyvale, CA), with pSOL Explorer solubility determination software (pION, Woburn, MA).
FaSSIF solubility was calculated using the following formula:
[formula] • wherein: • “OD” is the optical density; • “Cr” is the concentration of the reference (33.4 μM); and • “molecular weight” is for the test compound (e.g., 381.44 for ABD735).

[3] = test system: Thp1 human monocytic cells; test: Thp1 Monocyte ATP Production Assay (ATPlite); format: cell-based; details: Homo sapiens, THP-1, Thp1 cells, 24 hour incubation, mean of 2 independent experiments
Description: In vitro potency of test compounds was determined by incubation with Thp1 human monocytic cells and subsequent determination of Adenosine TriPhosphate (ATP) levels using firefly luciferase.
ATP is present in all metabolically active cells. When cells lose integrity, their ability to synthesise ATP is rapidly lost. […] See, e.g., Kang et al., 2015; Jiang et al., 2013. Levels of ATP can be monitored using a system based on firefly (Photinus pyralis) luciferase (see, e.g., Auld et al., 2009) using commercially available kits. A system known as ATPlite™ was using to measure effects of the test compounds on cellular viability in vitro. This one-step assay system is an adenosine triphosphate (ATP) monitoring system based on the production of light caused by the reaction of ATP from the cells with added luciferase and D-luciferin, as illustrated in the reaction scheme below:
Thp1 cells were plated at 112500 cells per well in 125 μL RPMI-1640 (no glucose) with 1% FBS in 96-well plates. Test compounds were prepared as 100 mM solutions in DMSO. These stock solutions were diluted in DMSO and then diluted 1000× in culture medium (RPMI) before being added directly to the wells so as to give the desired final compound concentration. After a 24 hour incubation at 37° C./5% CO2, ATPLite™ (Perkin Elmer) was added to each well (1:10 v/v, 10 μL). The plate was then incubated at room temperature for 5 minutes and the emitted light was quantified on Viewlux with a measurement time of 0.3 seconds and binning 4×4.
The average results for each test compound were expressed as a percent (%) of the average control value reflecting cell viability. The average values across the concentrations tested were then plotted and the IC50 for was calculated by fitting the data to a 4-parameter IC50 equation using software from Graf it (Erithacus Software). Each experiment was repeated twice and the data are presented as the mean IC50 from both experiments.

[4] = target: hERG ion channel (Homo sapiens (Human), UniProt Q12809); test: hERG Ion Channel binding assay (3H astemizole displacement)
Description: (§1) The activity of the compounds against the hERG ion channel was tested using a binding assay in stably transfected Human Embryonic Kidney cells (hERG-HEK293). hERG-HEK293 cells were cultured in MEM medium (Invitrogen)+10% FBS, glutamine and non-essential amino acids at 37° C. To prepare membranes, cells were homogenised on ice, centrifuged at 650×g for 10 minutes at +4° C., and the resulting supernatant centrifuged at 48000×g for 10 minutes at +4° C. The pellet was resuspended in ice-cold 50 mM Tris-HCl buffer, 5 mM KCl (pH 8.5) and stored frozen in aliquots until use.
(§2) For binding assays, membranes were thawed, re-suspended in assay buffer (10 mM HEPES pH 7.4, 0.1% BSA, 5 mM potassium chloride, 0.8 mM magnesium chloride, 130 mM sodium chloride, 1 mM sodium-EGTA, 10 mM glucose) and incubated with ^3H astemizole (1.5 nM), and with or without test compound at 25° C. for 60 minutes. Binding was determined following filtration of the membranes and washing in Tris-HCl buffer by scintillation counting of ^3H astemizole.
(§3) The degree of binding of compounds to the hERG ion channel (%) was obtained by measuring the binding of ^3H astemizole and its displacement by test compound. A value of 0% indicates no binding and a value of 100% indicates complete displacement of the radiolabelled ligand.

[5] = target: hERG (Homo sapiens (Human), UniProt Q12809); test: as above; details: human, membranes of HEK293 cells stably expressing hERG, pH 7.4, probe 3H astemizole (1.5 nM); 30 μM; displacement of 3H astemizole, hERG-HEK293 membranes
Description: as §1, §2, §3

[6] = test system: human hepatocytes; test: Human Hepatocyte Stability; format: in vitro ADME; details: human hepatocytes
Description: (§4) Metabolic stability of test compounds was measured by determination of the rate of disappearance of the compound when incubated in the presence of human hepatocytes, a primary source of the most important enzymes (cytochrome P450s) involved in drug metabolism. Study of drug stability in the presence of primary hepatocytes is accepted as a valuable model permitting rapid prediction of in vivo drug stability.
(§5) Human hepatocytes were obtained from a commercial source and viability was assessed using a trypan blue solution prior to use. Test compounds (final concentration 1 μM, 0.1 DMSO, 0.9% acetonitrile) or a marker (diclofenac or diltiazem, final assay concentration 1 μM, 0.1% DMSO, 0.9% acetonitrile) were incubated with pooled hepatocytes for a 60 minute period and samples removed at up to 6 time points and analysed by LC-MS/MS for the presence/amount of test compounds.
(§6) Each compound was incubated for 0, 5, 15, 30, 45, or 60 minutes. The reactions were stopped by the addition of methanol containing an internal standard (1 μM Tolbutamide) at the appropriate time points, mixed and placed at −20° C. for 1 hour to quench and allow protein to precipitate. All samples were centrifuged (2500× g, 20 minutes, 4° C.). The aliquots were analysed using LC-MS/MS. Reactions were performed in duplicate at 37° C.
(§7) Data were processed, and the results plotted as In(concentration) vs. time. The elimination rate constant (slope of the regression line, k) was calculated using the following formula, where C(t) is the concentration at time t and C(0) is the starting concentration:
(§8) The half-life (t1/2) was calculated using the following formula: […]
(§9) The intrinsic clearance (Clint) was calculated using the following formula, where [cell] is the hepatocyte concentration in the assay: […]

[7] = Human Hepatocyte Stability; format: in vitro ADME; details: pooled human hepatocytes, 1 μM, 60 minute incubation; for half-life at 1 μM: read-out: Human t1/2
Description: as §4, §5, §6, §7, §8, §9

[8] = 9-point concentration range from 10 μM to 10 nM

Chain of hERG (Q12809 whole entry): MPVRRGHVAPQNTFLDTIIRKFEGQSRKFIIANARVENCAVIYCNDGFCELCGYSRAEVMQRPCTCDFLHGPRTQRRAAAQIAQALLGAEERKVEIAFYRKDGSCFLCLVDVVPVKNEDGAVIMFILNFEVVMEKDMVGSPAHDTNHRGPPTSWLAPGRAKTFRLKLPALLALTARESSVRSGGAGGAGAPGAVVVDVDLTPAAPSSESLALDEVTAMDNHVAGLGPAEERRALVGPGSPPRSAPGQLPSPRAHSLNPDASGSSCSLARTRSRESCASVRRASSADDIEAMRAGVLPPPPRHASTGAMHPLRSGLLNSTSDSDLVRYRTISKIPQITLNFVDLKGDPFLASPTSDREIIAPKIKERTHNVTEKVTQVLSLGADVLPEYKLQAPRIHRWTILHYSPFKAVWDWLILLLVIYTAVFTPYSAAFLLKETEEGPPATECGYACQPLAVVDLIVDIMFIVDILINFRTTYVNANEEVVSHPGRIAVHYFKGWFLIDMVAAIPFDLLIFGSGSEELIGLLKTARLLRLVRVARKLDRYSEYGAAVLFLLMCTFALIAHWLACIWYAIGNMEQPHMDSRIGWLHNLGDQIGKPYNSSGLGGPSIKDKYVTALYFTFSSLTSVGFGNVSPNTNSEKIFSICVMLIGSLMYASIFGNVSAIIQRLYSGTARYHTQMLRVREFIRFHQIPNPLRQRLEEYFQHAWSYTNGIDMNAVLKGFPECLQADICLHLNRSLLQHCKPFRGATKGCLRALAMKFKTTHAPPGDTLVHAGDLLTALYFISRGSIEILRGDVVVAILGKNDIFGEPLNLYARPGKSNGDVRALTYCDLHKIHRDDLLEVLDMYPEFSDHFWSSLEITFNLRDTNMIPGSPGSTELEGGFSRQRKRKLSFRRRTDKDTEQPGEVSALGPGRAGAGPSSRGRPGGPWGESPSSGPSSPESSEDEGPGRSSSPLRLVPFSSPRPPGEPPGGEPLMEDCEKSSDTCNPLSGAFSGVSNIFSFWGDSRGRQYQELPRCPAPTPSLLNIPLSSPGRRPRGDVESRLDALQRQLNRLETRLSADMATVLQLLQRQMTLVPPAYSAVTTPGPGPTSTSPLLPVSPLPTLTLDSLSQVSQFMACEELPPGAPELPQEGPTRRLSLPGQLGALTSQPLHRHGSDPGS
Chain of hERG ion channel (Q12809 whole entry): as above

Row | Compound | % inhibition of disease [1] [%] | solubility (in words) [2] | solubility at 16 h [2] [µg/mL] | IC50 [3, 8] [µM] | cardiac safety profile, hERG (in words) [4] | inhibition at 60 min, 30 µM [5] [%] | metabolic stability (in words) [6] | hepatocyte CLint at 1 μM [7] [µL/min/1e6 cells] | half-life at 1 μM [7] [h] | IC50 ([3]; 8-point concentration range from 100 μM to 100 nM) [µM]
1 | C[C@]1(O)CC[C@@H](NS(=O)(=O)c2ccc(-c3ccc(Cl)cc3C#N)cc2)CC1 [HMC-C-01-B] | 26 | – | – | – | – | – | – | – | – | –
2 | CC(=O)N1CCC(C(C)S(=O)(=O)c2ccc(-c3ccc(F)cc3F)cc2)CC1 (centres unmarked) [NASMP-17, 1-(4-(1-((2′,4′-Difluoro-[1,1′-biphenyl]-4-yl)sulfonyl)ethyl)piperidin-1-yl)ethan-1-one] | – | particularly good solubility | 77 (≈ 189 µM) | 4.6 | particularly positive profile | 14 | – | – | – | –
3 | CC(=O)N1CCC(C(C)(C)S(=O)(=O)c2ccc(-c3ccc(F)cc3F)cc2)CC1 [NASMP-18, 1-(4-(2-((2′,4′-Difluoro-[1,1′-biphenyl]-4-yl)sulfonyl)propan-2-yl)piperidin-1-yl)ethan-1-one] | – | – | 39 (≈ 92.5 µM) | – | particularly positive profile | 14 | exceptionally good stability | 3.8 | 5.87 | 28.5
4 | CC(=O)N1CCC(C2(S(=O)(=O)c3ccc(-c4ccc(F)cc4F)cc3)CC2)CC1 [NASMP-21, 1-(4-(1-((2′,4′-Difluoro-[1,1′-biphenyl]-4-yl)sulfonyl)cyclopropyl)piperidin-1-yl)ethan-1-one] | – | particularly good solubility | 71 (≈ 169 µM) | 6.1 | particularly positive profile | 1 | – | 13.4 | 1.74 | –
